Drawing on ChEMBL document CHEMBL1201861, “Genomics of Drug Sensitity in Cancer screening data, Wellcome Trust Sanger Institute”, this text covers IC50 for 3 compounds.

Holding throughout (type): functional, cell-based
One test concerns ARH-77. Briefly: cells. As to conditions: Homo sapiens.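 Also: growth inhibition of ARH-77 cells, read out by a cell viability assay.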
In a further test the test system is MRK-nu-1. Kind of test: cells. The settings on record: Homo sapiens.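 Also: cell viability assay measuring growth suppression of human MRK-nu-1 cells.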
The next test concerns CPC-N. Kind of test: cells. The settings on record: Homo sapiens.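 Also: growth inhibition of CPC-N cells, with a cell viability assay as the readout.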
For another test, the system named is BL-41. Kind of test: cells. As to conditions: Homo sapiens.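 Also: growth inhibition of human BL-41 cells, read out with a cell viability assay.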
A further test concerns EVSA-T. Kind of test: cells. The settings on record: Homo sapiens.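 Also: growth inhibition of EVSA-T cells, read out with a cell viability assay.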
The next test has as its system P31-FUJ. Briefly: cells. As to conditions: Homo sapiens.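 Also: growth inhibition of P31-FUJ cells, read out with a viability assay.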
Another test deals with SIG-M5. Briefly: cells. The settings on record: Homo sapiens.
The test system of the next test is MDA-MB-134-VI. Briefly: cells. The settings on record: Homo sapiens.
Another test relates to TALL-1. Briefly: cells. As to conditions: Homo sapiens.
Another test has as its system NCI-H187. Briefly: cells. As to conditions: Homo sapiens.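 Also: growth inhibition of NCI-H187 cells, read out as cell viability.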
The test system of the next test is SU-DHL-1. Briefly: SANGER: Inhibition of human SU-DHL-1 cell growth in a cell viability assay.
The subject of the next test is NCI-H2141. Kind of test: cells. The settings on record: Homo sapiens.
Another test deals with RL95-2. Kind of test: cells. The settings on record: Homo sapiens.
The subject of a further test is HCC2157. Briefly: cells. The settings on record: Homo sapiens.
A further test deals with NCI-H1417. Briefly: cells. As to conditions: Homo sapiens.
The subject of another test is NCI-H1522. Briefly: cells. As to conditions: Homo sapiens.
In a further test the test system is NCI-H1882. Briefly: cells. As to conditions: Homo sapiens.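 Also: growth inhibition of the cell line, determined with a viability assay.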

Description for ARH-77: SANGER: Inhibition of human ARH-77 cell growth in a cell viability assay.
Description for BL-41: SANGER: Inhibition of human BL-41 cell growth in a cell viability assay.
Description for CPC-N: SANGER: Inhibition of human CPC-N cell growth in a cell viability assay.
Description for EVSA-T: SANGER: Inhibition of human EVSA-T cell growth in a cell viability assay.
Description for HCC2157: SANGER: Inhibition of human HCC2157 cell growth in a cell viability assay.
Description for MDA-MB-134-VI: SANGER: Inhibition of human MDA-MB-134-VI cell growth in a cell viability assay.
Description for MRK-nu-1: SANGER: Inhibition of human MRK-nu-1 cell growth in a cell viability assay.
Description for NCI-H1417: SANGER: Inhibition of human NCI-H1417 cell growth in a cell viability assay.
Description for NCI-H1522: SANGER: Inhibition of human NCI-H1522 cell growth in a cell viability assay.
Description for NCI-H187: SANGER: Inhibition of human NCI-H187 cell growth in a cell viability assay.
Description for NCI-H1882: SANGER: Inhibition of human NCI-H1882 cell growth in a cell viability assay.
Description for NCI-H2141: SANGER: Inhibition of human NCI-H2141 cell growth in a cell viability assay.
Description for P31-FUJ: SANGER: Inhibition of human P31-FUJ cell growth in a cell viability assay.
Description for RL95-2: SANGER: Inhibition of human RL95-2 cell growth in a cell viability assay.
Description for SIG-M5: SANGER: Inhibition of human SIG-M5 cell growth in a cell viability assay.
Description for TALL-1: SANGER: Inhibition of human TALL-1 cell growth in a cell viability assay.

Take `Cc1nc(Nc2ncc(C(=O)Nc3c(C)cccc3Cl)s2)cc(N2CCN(CCO)CC2)n1` [DASATINIB]: the IC50 in the test with ARH-77 is over 1280 nM; with MRK-nu-1, over 1280 nM; in the test on CPC-N, over 1280 nM; in the test with BL-41 it was 291 nM; in the test on EVSA-T, over 1280 nM; with P31-FUJ, over 1280 nM. For the same compound, the IC50 with SIG-M5, with MDA-MB-134-VI, in the test with TALL-1, in the test with NCI-H187, in the test on SU-DHL-1 and in the test on NCI-H2141 was over 1280 nM each time. The IC50 in the test on RL95-2 was 104 nM; in the test on HCC2157, over 1280 nM; in the test with NCI-H1417, over 1280 nM; in the test on NCI-H1522 it was over 1280 nM; with NCI-H1882, over 1280 nM.

Consider `CCn1c(-c2nonc2N)nc2cnc(Oc3cccc(NC(=O)c4ccc(OCCN5CCOCC5)cc4)c3)cc21` [GSK-269962A], for which the IC50 in the test with ARH-77 is over 2500 nM; in the test on MRK-nu-1, 576 nM; in the test on CPC-N, over 2500 nM; with BL-41 it was over 2500 nM; in the test with EVSA-T, over 2500 nM; with P31-FUJ, over 2500 nM. Moreover, the IC50 with SIG-M5, with MDA-MB-134-VI, in the test with TALL-1, with NCI-H187, with SU-DHL-1 and in the test with NCI-H2141 was over 2500 nM in each case. The IC50 with RL95-2, in the test with HCC2157, with NCI-H1417, with NCI-H1522 and with NCI-H1882 was over 2500 nM each time.

For `Cc1[nH]c(/C=C2\C(=O)Nc3ccc(S(=O)(=O)Cc4c(Cl)cccc4Cl)cc32)c(C)c1C(=O)N1CCC[C@@H]1CN1CCCC1` [PHA-665752], the IC50 with ARH-77, with MRK-nu-1, in the test on CPC-N, with BL-41, with EVSA-T and with P31-FUJ was over 2000 nM each time. In addition, the IC50 in the test on SIG-M5, with MDA-MB-134-VI, in the test on TALL-1, in the test on NCI-H187, in the test on SU-DHL-1 and in the test with NCI-H2141 was over 2000 nM each time. The IC50 in the test on RL95-2, with HCC2157, in the test with NCI-H1417, with NCI-H1522 and with NCI-H1882 was over 2000 nM throughout.
